These results are taken from patent US20170050957A1, “4-AMINO-6-(HETEROCYCLIC)PICOLINATES AND 6-AMINO-2-(HETEROCYCLIC)PYRIMIDINE-4-CARBOXYLATES AND THEIR USE AS HERBICIDES” (Dow AgroSciences LLC, priority 2013, published 2017).

The test system of series [1] is Key Broadleaf Weed and Crop Species. As to the kind of experiment: Post-emergent Test II herbicidal activity (Table 15). Format: in vivo. The following applies: post-emergence, 336 h, 140 g ai/ha, 14 d. In outline: (§1)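 Greenhouse-grown seedlings at first/second true leaf receive a track spray at 187 L/ha, using a highest rate plus two-fold serial dilutions down to 1/16×. Watering is by subirrigation to avoid wash-off. Percent injury (0-100) is judged by eye at 14 d against untreated plants.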

Series [2] relates to Key Grass and Sedge Weeds as well as Grass Crops. The series is described as follows: Post-emergent Test II herbicidal activity (Table 16). Format: in vivo. The conditions noted are these: post-emergence, 336 h, 140 g ai/ha, 14 days after application. In outline: as §1

The structures appear in SMILES notation. Where two headings read alike, the source gives them in different places.

For `Cn1ncc2ccc(-c3nc(C(=O)O)c(Cl)c(N)c3F)cc21` [Compound 4.08], the melting point (usually the temperature of the solid-liquid transition) is 182 to 184 °C. The pest or weed control at 140 g/ha in series [1] (Abutilon theophrasti, velvetleaf (Abutilon theophrasti), read-out: Visual Growth Reduction (%) 14 Days After Application, ABUTH) lay within 0 to 29%. Further, the pest or weed control at 140 g/ha in series [1] (Brassica napus, oilseed rape, canola (Brassica napus), read-out: Visual Growth Reduction (%) 14 Days After Application, BRSNN) was in the range of 60 to 74%. In series [1] (Chenopodium album, lambsquarters (Chenopodium album), read-out: Visual Growth Reduction (%) 14 Days After Application, CHEAL), the pest or weed control at 140 g/ha lay within 95 to 100%. In addition, the pest or weed control at 140 g/ha in series [1] (Euphorbia heterophylla, wild poinsettia (Euphorbia heterophylla), read-out: Visual Growth Reduction (%) 14 Days After Application, EPHHL) was 0 to 29%. In series [1] (Helianthus annuus, sunflower (Helianthus annuus), read-out: Visual Growth Reduction (%) 14 Days After Application, HELAN), the pest or weed control at 140 g/ha fell in the range of 85 to 94%. Moreover, the pest or weed control at 140 g/ha in series [2] (Cyperus esculentus, yellow nutsedge (Cyperus esculentus), read-out: Visual Growth Reduction (%) 14 Days After Application CYPES) fell in the range of 0 to 29%. In addition, in series [2] (Echinochloa crus-galli, barnyardgrass (Echinochloa crus-galli), read-out: Visual Growth Reduction (%) 14 Days After Application ECHCG), the pest or weed control at 140 g/ha was in the range of 0 to 29%. Besides, the pest or weed control at 140 g/ha in series [2] (Oryza sativa, rice (Oryza sativa), read-out: Visual Growth Reduction (%) 14 Days After Application ORYSA) fell in the range of 0 to 29%. Moreover, in series [2] (Setaria faberi, giant foxtail (Setaria faberi), read-out: Visual Growth Reduction (%) 14 Days After Application SETFA), the pest or weed control at 140 g/ha was in the range of 0 to 29%. Also, in series [2] (Triticum aestivum, wheat, spring (Triticum aestivum), read-out: Visual Growth Reduction (%) 14 Days After Application TRZAS), the pest or weed control at 140 g/ha fell in the range of 0 to 29%. For the same molecule, in series [2] (Zea mays, maize, corn (Zea mays), read-out: Visual Growth Reduction (%) 14 Days After Application ZEAMX), the pest or weed control at 140 g/ha lay in the range of 0 to 29%.
